Experimental data as given in article PMC6797721, “Unveil the Anticancer Potential of Limomene Based Therapeutic Deep Eutectic Solvents” (Scientific Reports, 2019).

What was measured:
Format in all cases: cell-based, Human
HT29 cells [1] = assay: Antiproliferative assay in HT29 cell monolayer (MTS); settings: isolated compounds, HT29, 24 hours, mean ± SD
Experimental: Human Caco-2 and HT29 cell lines were obtained from Deutsche Sammlung von Mikroorganismen und Zellkulturen (DSMZ, Germany) and American Type Culture Collection (ATCC, USA), respectively. These cell lines were cultured in RPMI 1640 medium supplemented with 10% of heat-inactivated fetal bovine serum (FBS) and 1% […] (PS). Cells were maintained at 37°C with 5% CO2 in a humidified incubator and routinely grown as a monolayer in 75 cm^2 culture flasks. The cell culture medium and supplements were purchased from Invitrogen (Gibco, Invitrogen Corporation, UK). Antiproliferative effect of […] and standard compounds was evaluated in HT29 cells, as described elsewhere. Briefly, cells were seeded at a density of 1 × 10^4 cells/well in 96-well culture plates. After 24 hours cells were incubated with different concentrations of the samples diluted in culture medium. Cells incubated only with culture medium were considered as control. Cell proliferation was measured after 24 hours using MTS, as mentioned above. Results were expressed in terms of percentage of living cells relatively to the control. At least three independent experiments were performed in triplicate. All data were expressed as mean ± standard errors (SD). GraphPad Prism 6 software was used to calculate EC50 values (the concentration of sample necessary to decrease 50% of cell population) and to analyse significant differences between data set through One-Way Analysis of Variance (ANOVA) following Dunnett's multiple comparison tests.

Caco-2 cells = assay: Cytotoxicity assay (MTS) in confluent non-differentiated Caco-2 cells; settings: isolated compounds; Caco-2, 24 hours, mean ± SD
Experimental: (§1) Human Caco-2 and HT29 cell lines were obtained from Deutsche Sammlung von Mikroorganismen und Zellkulturen (DSMZ, Germany) and American Type Culture Collection (ATCC, USA), respectively. These cell lines were cultured in RPMI 1640 medium supplemented with 10% of heat-inactivated fetal bovine serum (FBS) and 1% […] (PS). Cells were maintained at 37°C with 5% CO2 in a humidified incubator and routinely grown as a monolayer in 75 cm^2 culture flasks. The cell culture medium and supplements were purchased from Invitrogen (Gibco, Invitrogen Corporation, UK). Cytotoxicity assay was performed using confluent and non-differentiated Caco-2 cells, a model considered to assess the effect of chemical/food compounds and nano/microparticles on the intestinal function since it shares characteristics of the enterocytes. The assay was performed as previously described by Rodrigues et al.[71]. Briefly, Caco-2 cells were seeded into 96-well plates at a density of 2 × 10^4 cells/well and allowed to grow for 7 days, with medium renewal every 48 hours. At day 7, cells were incubated with the samples diluted in culture medium. Cells incubated only with culture medium were considered as control. After 24 hours, cells were washed once with PBS (Sigma-Aldrich, USA) and cell viability was assessed using CellTiter 96® AQueous One Solution Cell Proliferation Assay (Promega, USA) containing MTS reagent, according to manufacturer's instructions. The absorbance was measured at 490 nm using a Spark® 10 M Multimode Microplate Reader (Tecan Trading AG, Switzerland) and cell viability was expressed in terms of percentage of living cells relatively to the control. At least three independent experiments were performed in triplicate. All data were expressed as mean ± standard errors (SD). GraphPad Prism 6 software was used to calculate EC50 values (the concentration of sample necessary to decrease 50% of cell population) and to analyse significant differences between data set through One-Way Analysis of Variance (ANOVA) following Dunnett's multiple comparison tests.

HT29 cells [2] = assay: Cell cycle assessment by flow cytometry; settings: HT29, 24 hours, non-cytotoxic concentrations
Experimental: HT29 cell line was seeded at a density of 1 × 10^6 cells in a 25 cm^2 culture flask for 24 hours. Then, cells were incubated in different concentrations of the samples diluted in culture medium and culture medium alone (as control) for 24 hours. For flow cytometry analysis of DNA content, bare nuclei were prepared as described elsewhere. Briefly, cells were detached from the culture flasks with trypsin-EDTA 0.5% and washed one time with cold PBS. Finally, 1 × 10^6 cells were re-suspended in 1 mL of staining solution containing […] of Propidium Iodide (Sigma-Aldrich, USA), 1.5% (v/v) of Triton X-100 (Sigma-Aldrich, USA), 0.7 U/mL of DNase/protease-free Ribonuclease A (Thermo Scientific, USA) and 0.01 M of NaCl, followed by incubation at room temperature in the dark for 2 hours. Cell cycle was assessed by flow cytometry, using a CyFlow space (Partec GmbH) instrument, registering 30.000 events/sample as described previously.

[3] = Cytotoxicity assay (MTS) in confluent non-differentiated Caco-2 cells; settings: human, confluent, non-differentiated Caco-2 cells; isolated compounds; Caco-2, 24 hours, mean ± SD
Experimental: as §1

HT29 cells [4] = assay: Caspase-3 activity induction (apoptosis); settings: HT29, 24 hours, 2 mM
Experimental: Apoptosis was evaluated by caspase-3 activity using NucView488TM and MitoView633TM Apoptosis Assay Kit (Biotium, USA) that allows the staining of living cells with a far-red fluorescent dye MitoView633TM, while the intracellular caspase-3/7 activity and cells nuclei morphological changes were stained with bright green fluorescent dye NucView488TM. HT29 cells were seeded at a density of 40.000 cell/cm^2 at 24-well plate for 24 hours. Then, cells were incubated another 24 hours with different concentrations of the samples diluted in culture medium and culture medium alone (as control). Staining was performed with 200 μL/well of culture medium containing 1 μL of NucView488TM and 1 μL of MitoView633TM for 2 hours.

| Compound | EC50 (HT29 cells [1]) [µM] | EC50 (Caco-2 cells) [µM] | EC50 (HT29 cells [1]; Homo sapiens, HT-29) [µM] | Effect on cell cycle (HT29 cells [2]) | EC50 at 24 h [3] [µM] | Induction of apoptosis (caspase-3 activity) (HT29 cells [4]) |
| --- | --- | --- | --- | --- | --- | --- |
| CCCCCCCCCC(=O)O [CA, Capric acid] | 341 ± 81 | 1330 ± 223 | – | – | – | – |
| CC(C)Cc1ccc(C(C)C(=O)O)cc1 (centres unmarked) [IBU, Ibuprofen] | – | – | 2350 ± 88 | promoted cell cycle arrest in G1-phase | 2890 ± 59 | – |
| CC1CCC(C(C)C)C(O)C1 (centres unmarked) [Menthol, menthol] | – | – | 4730 | – | 8080 ± 810 | – |
| S-Limonene | 661 ± 25 | 2640 ± 108 | – | promoted cell cycle arrest in G1-phase | – | capable of inducing apoptosis via caspase-3 activity |
